Experimental data taken from ChEMBL document CHEMBL3804815, “Aloperine and Its Derivatives as a New Class of HIV-1 Entry Inhibitors” (ACS Med Chem Lett, 2016).
Calls of active or inactive are those of the source. No cut-off for these calls is given here.

Columns and labels:
[1] = Cytotoxicity against human MT4 cells assessed as reduction in cell viability after 3 days by CellTiter-Glo luminescent assay; type: cell-based
[2] = system: Human immunodeficiency virus 1; assay: Antiviral activity against HIV1 NL4-3 infected in human MT4 cells assessed as reduction in viral replication measured on day 3 post infection by Nano-Glo luciferase reporter gene assay; type: functional, organism-based; conditions: Human immunodeficiency virus 1, NL4-3, MT4, 72 h
[3] = system: Human immunodeficiency virus 1; assay: Antiviral activity against HIV1 NL4-3 assessed as inhibition of viral infection in human MT4 cells treated 2 hrs post infection; type: functional, organism-based
[4] = Inhibition of HIV1 NL4-3 Env-induced cell-cell fusion between viral envelope expressing African green monkey COS cells to CXCR4 receptor expressing human TZM-bl cells after overnight incubation by Bright-Glo luciferase assay; type: cell-based; conditions: Human immunodeficiency virus 1, NL4-3, COS
COS [5] = assay: Inhibition of HIV1 8X gp120-induced cell-cell fusion between viral envelope expressing African green monkey COS cells and human TZM-bl cells at 0.001 to 10 uM after overnight incubation by Bright-Glo luciferase assay; type: cell-based; conditions: Human immunodeficiency virus 1
[6] = system: Human immunodeficiency virus 1; assay: Antiviral activity against HIV1 NL4-3 assessed as inhibition of early phase viral infection in human MT4 cells; type: functional, organism-based
COS [7] = assay: Inhibition of BMS-806 resistant HIV1 YU2 gp120 T198P mutant-induced cell-cell fusion between viral envelope expressing African green monkey COS cells to CCR5 receptor expressing human TZM-bl cells at 0.001 to 10 uM after overnight incubation by Bright-Glo luciferase assay; type: cell-based; conditions: Human immunodeficiency virus type 1 (isolate YU2)
[8] = Inhibition of HIV1 YU2 gp120-induced cell-cell fusion between viral envelope expressing African green monkey COS cells to CCR5 receptor expressing human TZM-bl cells after overnight incubation by Bright-Glo luciferase assay; type: cell-based, Human immunodeficiency virus type 1 (isolate YU2); conditions: Human immunodeficiency virus 1, COS
[9] = system: Human immunodeficiency virus 1; assay: Antiviral activity against pseudotype HIV1 X1632 harboring HIV1 subtype G Env assessed as inhibition of viral infection in human TZM-bl cells measured 2 days post infection by luciferase reporter gene assay; type: functional, organism-based; conditions: Human immunodeficiency virus 1, X1632, TZM-bl, 48 h
[10] = system: Human immunodeficiency virus 1; assay: Effect on binding of HIV1 3B gp120 to CD4-IgG2 at 1 to 10 ug/ml by ELISA
[11] = Cytotoxicity against human TZM-bl cells at 20 uM; type: cell-based
[12] = system: Human immunodeficiency virus 1; assay: Antiviral activity against pseudotype HIV1 CH119 harboring HIV1 subtype CRF07_BC Env assessed as inhibition of viral infection in human TZM-bl cells measured 2 days post infection by luciferase reporter gene assay; type: functional, organism-based; conditions: Human immunodeficiency virus 1, CH119, TZM-bl, 48 h
[13] = system: Human immunodeficiency virus 1; assay: Antiviral activity against pseudotype HIV1 CE1176 harboring HIV1 subtype C Env assessed as inhibition of viral infection in human TZM-bl cells measured 2 days post infection by luciferase reporter gene assay; type: functional, organism-based; conditions: Human immunodeficiency virus 1, CE1176, TZM-bl, 48 h
[14] = system: Human immunodeficiency virus 1; assay: Antiviral activity against pseudotype HIV1 25710 harboring HIV1 subtype C Env assessed as inhibition of viral infection in human TZM-bl cells measured 2 days post infection by luciferase reporter gene assay; type: functional, organism-based; conditions: Human immunodeficiency virus 1, 25710, TZM-bl, 48 h
COS [15] = assay: Inhibition of HIV1 NL4-3 Env-induced cell-cell fusion between viral envelope expressing African green monkey COS cells to CXCR4 receptor expressing human TZM-bl cells at 0.01 to 10 uM after overnight incubation by Bright-Glo luciferase assay; type: cell-based; conditions: Human immunodeficiency virus 1
[16] = system: Human immunodeficiency virus 1; assay: Antiviral activity against pseudotype HIV1 TRO11 harboring HIV1 subtype B Env assessed as inhibition of viral infection in human TZM-bl cells measured 2 days post infection by luciferase reporter gene assay; type: functional, organism-based; conditions: Human immunodeficiency virus 1, TRO11, TZM-bl, 48 h
[17] = system: Human immunodeficiency virus 1; assay: Antiviral activity against pseudotype HIV1 BJOX2000 harboring HIV1 subtype CRF07_BC Env assessed as inhibition of viral infection in human TZM-bl cells measured 2 days post infection by luciferase reporter gene assay; type: functional, organism-based; conditions: Human immunodeficiency virus 1, BJOX2000, TZM-bl, 48 h
[18] = system: Human immunodeficiency virus 1; assay: Antiviral activity against pseudotype HIV1 CE0217 harboring HIV1 subtype C Env assessed as inhibition of viral infection in human TZM-bl cells measured 2 days post infection by luciferase reporter gene assay; type: functional, organism-based; conditions: Human immunodeficiency virus 1, CE0217, TZM-bl, 48 h
[19] = system: Human immunodeficiency virus 1; assay: Antiviral activity against pseudotype HIV1 CNE55 harboring HIV1 subtype CRF01_AE Env assessed as inhibition of viral infection in human TZM-bl cells measured 2 days post infection by luciferase reporter gene assay; type: functional, organism-based; conditions: Human immunodeficiency virus 1, CNE55, TZM-bl, 48 h

Compound	CC50 at 72 h [1] [µM]	EC50 [2] [µM]	also measured
O=C(Cc1ccc(OC(F)(F)F)cc1)NCCN1CCCC2=C[C@H]3C[C@H](CN4CCCC[C@H]34)[C@@H]21	> 41.9	> 10	–
C1=C2CCCN[C@H]2[C@@H]2C[C@H]1[C@H]1CCCCN1C2	> 86.2	1.75	inhibition [3]: inactive; EC50 [4]: 1.2 µM; inhibition (COS [5]): Active; inhibition [6]: Active; inhibition (COS [7]): Active; EC50 [8]: 1.6 µM
O=C(NCCN1CCCC2=C[C@H]3C[C@H](CN4CCCC[C@H]34)[C@@H]21)c1ccc(OC(F)(F)F)cc1	> 43.2	> 10	–
NCCCCCN1CCCC2=C[C@H]3C[C@H](CN4CCCC[C@H]34)[C@@H]21	> 63.1	5.38	–
O=C(NCCCCN1CCCC2=C[C@H]3C[C@H](CN4CCCC[C@H]34)[C@@H]21)c1ccccc1OC(F)(F)F	> 40.7	> 10	–
O=C(Cc1ccc(OC(F)(F)F)cc1)NCCCN1CCCC2=C[C@H]3C[C@H](CN4CCCC[C@H]34)[C@@H]21	> 40.7	7.68	–
O=C(Cc1ccc(OC(F)(F)F)cc1)NCCCCN1CCCC2=C[C@H]3C[C@H](CN4CCCC[C@H]34)[C@@H]21	23	0.75	EC50 [9]: 2.5 µM; Activity [10]: inactive; Activity [11]: Non-toxic; EC50 [12]: 0.9 µM; EC50 [13]: 2.2 µM; EC50 [14]: 2.1 µM; inhibition (COS [15]): Active; EC50 [16]: 1.6 µM; EC50 [17]: 2.8 µM; EC50 [18]: 1.4 µM; EC50 [19]: 4.3 µM
C1CN[C@@H]2C(C1)C[C@H]1C[C@@H]2CN2CCCC[C@H]12 (stereo not given in full)	> 85.5	> 10	–
O=C(/C=C/c1ccc2c(c1)OCO2)NCCN1CCCC2=C[C@H]3C[C@H](CN4CCCC[C@H]34)[C@@H]21	> 44.5	> 10	–
COc1ccc(C(=O)NCCCCN2CCCC3=C[C@H]4C[C@H](CN5CCCC[C@H]45)[C@@H]32)cc1	> 45.8	8.13	–
O=C(NCCCCN1CCCC2=C[C@H]3C[C@H](CN4CCCC[C@H]34)[C@@H]21)c1ccc(OC(F)(F)F)cc1	34.6	1.12	–
NCCCCCCN1CCCC2=C[C@H]3C[C@H](CN4CCCC[C@H]34)[C@@H]21	> 60.4	> 10	–
O=C(NCCCCN1CCCC2=C[C@H]3C[C@H](CN4CCCC[C@H]34)[C@@H]21)c1ccc(C(F)(F)F)cc1	> 42.1	0.69	–
C1=C2CCCN(CCCCNCc3ccccc3)[C@H]2[C@@H]2C[C@H]1[C@H]1CCCCN1C2	28.6	0.96	–
O=C(/C=C/c1ccc(OC(F)(F)F)cc1)NCCCCCN1CCCC2=C[C@H]3C[C@H](CN4CCCC[C@H]34)[C@@H]21	6.36	2.39	–
O=C(NCCCCCN1CCCC2=C[C@H]3C[C@H](CN4CCCC[C@H]34)[C@@H]21)c1ccc(OC(F)(F)F)cc1	12.9	0.98	–
CN1CCCC2C[C@H]3C[C@H](CN4CCCC[C@H]34)[C@@H]21 (stereo not given in full)	> 80.6	> 10	–
O=C(Cc1ccc(OC(F)(F)F)cc1)NCCCCCN1CCCC2=C[C@H]3C[C@H](CN4CCCC[C@H]34)[C@@H]21	17.5	4.21	–
O=C(NCCCCN1CCCC2=C[C@H]3C[C@H](CN4CCCC[C@H]34)[C@@H]21)c1cccc(OC(F)(F)F)c1	> 40.7	3.89	–
